The values that follow come from US20170234881A1, “METHODS OF DIAGNOSING AND TREATING CANCER” (INSERM ( INSTITUT NATIONAL DE LA SANTÉ ET DE LA RECHERCHE …, priority 2014, published 2017).

One assay relates to TS/A cells. The experiment in a line: Cell invasion assay (matrigel-coated filters), TS/A. In kind it is cell-based, mouse. The conditions noted are these: concentration-dependent, level reached. As to the method: (§1) FIG. 2. OCDO is a tumor promoter in vitro and in vivo and its inhibition contributes to the anti-tumor effects of Tam and DDA. (A, B) Histograms representing the effect of OCDO or 17β-estrogen (E2) on MCF7 (A) and TS/A (B) cell proliferation after 24 h treatment using a colorimetric immunoassay measuring BrDU incorporation in DNA (C, D) Histogram representing the effect of OCDO on MCF7 (C) and TS/A (D) cell invasion. Data are the mean of three separate experiments (±s.e.m), *P<0.05, **P<0.01, ***P<0.001 (Student's t-test). (E, F) Mice were implanted s.c. with MCF7 (E) or TS/A (F) cells and animals (8 per group) were treated s.c. every day starting on the day of implantation with either the solvent vehicle or OCDO (16 μg/kg for MCF7 or 50 μg/kg for TS/A). Animals were monitored for tumour growth twice a week. The data are representative of three independent experiments. The mean tumor volume±s.e.m is shown, *P<0.05, **P<0.01, ***P<0.001 (analysis of variance (ANOVA), Dunnett's post test). (G) Mean (±s.e.m) of Ki67 positive cell number determined from IHC staining of MCF7 tumor sections from (E), n=8, *P<0.05 (Student's t-test) using HistoQuant, Pannoramic Viewer (3DHistech). […]
Invasion assays were carried out using Bio-Coat migration chambers (BD Falcon) with 8 μm filters previously coated with matrigel. […] The entire membranes were mounted on glass slides, and were counted under a microscope. […]

The next assay deals with MCF7 tumors. The experiment in a line: Growth of MCF7 tumors implanted s.c. into mice. In kind it is in vivo. As to the method: as §1, with “The data are representative of three independent experiments. The mean tumor volume±s.e.m is shown, *P<0.05, **P<0.01, ***P<0.001 (analysis of variance (ANOVA), Dunnett's post test).” left out
(§2) Exponentially growing MCF7, ShMCF7, E0771, MDA-MB231, MDA-MB468 and TS/A cells were collected, washed twice in PBS and resuspended in PBS. […] Animals were examined daily, and body weights were measured twice per week. In all the experiments, the tumor volume was determined by direct measurement with a caliper and was calculated using the formula (width^2×length)/2. […]

The subject of the next assay is MDA-MB231 cells. Nature of the assay: Growth of MDA-MB231 tumors implanted s.c. into mice. In kind it is in vivo. The conditions noted are these: human MDA-MB231 tumors, OCDO 16 μg/kg s.c. The procedure:
as §1, with “The data are representative of three independent experiments. The mean tumor volume±s.e.m is shown, *P<0.05, **P<0.01, ***P<0.001 (analysis of variance (ANOVA), Dunnett's post test).” left out
as §2

The next assay concerns MDA-MB468 cells. Nature of the assay: Growth of MDA-MB468 tumors implanted s.c. into mice. In kind it is in vivo. Particulars: human MDA-MB468 tumors, OCDO 16 μg/kg s.c. The procedure: as §1, with “The data are representative of three independent experiments. The mean tumor volume±s.e.m is shown, *P<0.05, **P<0.01, ***P<0.001 (analysis of variance (ANOVA), Dunnett's post test).” left out
as §2

Another assay relates to sh11HSD2 tumors. The experiment in a line: Growth of sh11HSD2 MCF7 tumors xenografted in mice. In kind it is in vivo. The procedure: FIG. 7. Knock-down of 11βHSD2 decreases cell proliferation, invasion and survival in MCF7 cells as well as tumor growth and OCDO reverses these effects. shC or shHSD2 MCF7 cells were analyzed as followed: (A) The proliferation of sh-C or shHSD2 cells treated or not with OCDO 5 μM 24 h was measured using quantification of DNA BrDU incorporation as described in FIG. 2A. (B) The proliferation of sh-C or shHSD2 cells treated or not with increasing concentration of cortisone for 24 h was measured as in (A). (C) The invasiveness of sh-C or shHSD2 cells treated or not with OCDO 5 μM for 72 h was assayed using matrigel-coated filters. (D) the formation of colony by sh-C or shHSD2 cells treated or not with OCDO 1 μM was quantified as described in FIG. 6F. […] Animals were monitored for tumor growth twice a week. […] (F) Mean (±s.e.m) of Ki67 positive cell number determined from IHC staining of shC or shHSD2 MCF7 tumor sections from (E), n=8, *P<0.05 (Student's t-test) using HistoQuant, Pannoramic Viewer (3DHistech).
as §2

Structures are written as SMILES.

For the molecule `CC(C)CCC[C@@H](C)[C@H]1CC[C@H]2[C@@H]3CC(=O)[C@@]4(O)C[C@@H](O)CC[C@]4(C)[C@H]3CC[C@]12C` [OCDO, 6-oxo-cholestan-3β,5α-diol], the “invasiveness compared with the control” value with TS/A cells is given as 2.3 fold. The “tumor growth compared with the control group” value with MCF7 tumors (MCF7 tumors in immunodeficient mice, OCDO 16 μg/kg s.c. every day) is given as “significantly increased”. Besides, in the assay with MCF7 tumors (MCF7 tumors, IHC), the “proliferative marker Ki67 in tumors compared with control-treated tumors” value was “increased”. Moreover, the tumor growth result in the assay on MDA-MB231 cells and in the assay on MDA-MB468 cells was “stimulates the growth” each time. In the assay on sh11HSD2 tumors (immunodeficient mice, subcutaneous OCDO 15 μg/kg, 5 days/week), the “effect on growth of sh11HSD2 tumors” value is given as “reversed the growth inhibition of sh11HSD2 tumors to a level similar to the growth of shC tumors”. For the same molecule, the “cell proliferation by KI67 staining of tumors” value with sh11HSD2 tumors (sh11HSD2 MCF7 tumors, OCDO treatment) is given as “reversed the growth inhibition of sh11HSD2 tumors”.
